From ChEMBL document CHEMBL6103537 (J Med Chem, 2025)
Calls of active or inactive are those of the source.

Legend:
Format in all cases: cell-based
[1] = target: T1, Protein cereblon/Signal transducer and activator of transcription 6 (Homo sapiens, UniProt P42226+Q96SW2); test: PROTAC activity at STAT6/CRBN in human MV4-11 cells assessed as reduction in STAT6 level at 0.5 uM measured upto 1200 mins by HiBiT bioluminescence assay
[2] = target: T1, Protein cereblon/Signal transducer and activator of transcription 6; test: PROTAC activity at STAT6 at Y641 residue/CRBN in human L-1236 cells assessed as reduction in STAT6 level at 10 uM incubated for 24 hrs by Western blot analysis
[3] = target: Protein cereblon/Signal transducer and activator of transcription 1-alpha/beta (Homo sapiens) (UniProt P42224+Q96SW2); test: PROTAC activity at STAT1/CRBN in human PBMC cells assessed as reduction in STAT1 level at 10 uM incubated for 18 hrs by Western blot analysis relative to control
[4] = target: T1, Protein cereblon/Signal transducer and activator of transcription 6; test: PROTAC activity at STAT6/CRBN in human L-1236 cells assessed as reduction in STAT6 level at 10 uM incubated for 24 hrs by Western blot analysis
[5] = target: Protein cereblon/Signal transducer and activator of transcription 3 (Homo sapiens) (UniProt P40763+Q96SW2); test: PROTAC activity at STAT3/CRBN in human PBMC cells assessed as reduction in STAT3 level at 10 uM incubated for 18 hrs by Western blot analysis relative to control
[6] = target: Protein cereblon/Signal transducer and activator of transcription 5A/Signal transducer and activator of transcription 5B (Homo sapiens) (UniProt P42229+P51692+Q96SW2); test: PROTAC activity at STAT5/CRBN in human PBMC cells assessed as reduction in STAT5 level at 10 uM incubated for 18 hrs by Western blot analysis relative to control
[7] = target: Protein cereblon/Signal transducer and activator of transcription 2 (Homo sapiens) (UniProt Q96SW2+P52630); test: PROTAC activity at STAT2/CRBN in human PBMC cells assessed as reduction in STAT2 level at 10 uM incubated for 18 hrs by Western blot analysis relative to control
[8] = target: Protein cereblon/Signal transducer and activator of transcription 4 (Homo sapiens) (UniProt Q96SW2+Q14765); test: PROTAC activity at STAT4/CRBN in human PBMC cells assessed as reduction in STAT4 level at 10 uM incubated for 18 hrs by Western blot analysis relative to control
[9] = target: T1, Protein cereblon/Signal transducer and activator of transcription 6; test: PROTAC activity at STAT6/CRBN in human MV4-11 cells assessed as reduction in STAT6 level at upto 10 uM incubated for 12 hrs by Western blot analysis

Measured: Activity

NS(=O)(=O)OC[C@@H]1C[C@@H](n2ccc3c(N[C@H]4CCc5ccccc54)ncnc32)C[C@@H]1O
inactive: [1] No effect

CN1C(=O)CCC(N2Cc3c(C#CCCCCCO[C@H]4C[C@@H](C(=O)N5CCO[C@H](c6ccccc6)C5)N(C(=O)[C@@H](NC(=O)c5cc6cc(C(F)(F)P(=O)(O)O)ccc6s5)C(C)(C)C)C4)cccc3C2=O)C1=O (some centres undefined)
inactive: [2] No effect | [3] No effect | [4] No effect | [5] No effect | [6] No effect | [7] No effect | [8] No effect | [9]
